Experimental findings from patent publication US20230072421A1, “TARGETED RADIOPHARMACEUTICALS FOR THE DIAGNOSIS AND TREATMENT OF PROSTATE CANCER” (Bayer AS, priority 2019, published 2023) are described below.

Experiment [1] has as its system LNCaP cells. As to the kind of experiment: Cell proliferation assay (CellTiter-Glo, 5-day exposure), LNCaP. The class given is cell-based, human. Particulars: LNCaP, 1000 cells/well; Th-227 labelled at 375 kBq/nmol; 5-day exposure; mean of 1 to 6 experiments. How it is done: Inhibition of cell proliferation of Thorium-227 labeled PMSA SMOL ligands was tested different prostate cancer cell lines, namely 22Rv1, VCaP, C4-2 (all from ATCC, Manassas, Va., USA) and LNCaP (DMSZ, Braunschweig). Cells were seeded using the following conditions in 384 well plates (Corning) in 30 μl of growth media at 4000 cells/well for VCaP cells and 1000 cells/well for 22Rv1, C4-2 and LNCaP cells.
Cells were cultivated an incubator at 37° C. and 5% C02 over night. On the following days cells were treated in triplicates with serial dilutions of PSMA-SMOLs labeled with Th-227 at a specific activity of 375 kBq/nmol (RCP>70% as assessed by iTLC analysis; compounds where RCP was between 50-70% in individual experiments are marked with an * in the table) using a D300e Digital Dispenser (Tecan). In sister plates cell viability at treatment start (d=0) was determined using CellTiter-Glo® assay (CTG, Promega, Madison, Wis., USA), by adding 30 μl per well CTG solution, incubation for 10 min and reading of Luminescence in a PheraStarFSX instrument (BMG Labtech). After a 5-day exposure in the presenced of test compounds, cell viability of treated or untreated control cells was determined again using CellTiter-Glo® assay (Promega, Madison, Wis., USA). […] The DRC software is a Biobook Spreadsheet that was developed by Bayer AG and Bayer Business Services on the IDBS E-Workbook Suite platform (IDBS: ID Business Solutions Ltd., Guildford, UK).
In general terms: In ATP-based viability assays light output follows the ATP content of the culture.

Experiment [2] concerns C4-2 cells. As to the kind of experiment: Cell proliferation assay (CellTiter-Glo, 5-day exposure), C4-2. The class given is cell-based. Particulars: C4-2, 1000 cells/well, Th-227 labelled at 375 kBq/nmol, mean of 1 to 6 experiments. The method, boiled down:
(§1)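 Cells were plated (4000/well VCaP, 1000/well for the other lines), left overnight at 37 °C with 5% CO2, then exposed for 5 days to Thorium-227-labelled PSMA ligands. Viability before and after exposure was measured by CellTiter-Glo.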

Experiment [3] concerns VCaP cells. As to the kind of experiment: Cell proliferation assay (CellTiter-Glo, 5-day exposure), VCaP. The class given is cell-based. Particulars: 4000 cells/well, Th-227 labelled at 375 kBq/nmol, mean of 1 to 6 experiments. The method, boiled down:
as §1

Turning to `O=C(O)CC[C@H](NC(=O)N[C@@H](CCCCNC(=O)[C@@H](Cc1ccc2ccncc2c1)NC(=O)[C@H]1CC[C@H](CNC(=O)C[N+]23CCN4CCN5CC[N+]6(CC2)CC(=O)[O][227Th-2]36([O]C(=O)C4)[O]C(=O)C5)CC1)C(=O)O)C(=O)O` [Example 42-B-227Th, (3R,10S,14S)-3-[(isoquinolin-7-yl)methyl]-1,4,12-trioxo-1-{(1r,4S)-4-[(2-{4,7,10-tris[(carboxy-kappaO)methyl]-1,4,7,10-tetraazacyclododecan-1-yl-kappa^2N^1,N^4}acetamido)methyl]cyclohexyl}-2,5,11,13-tetraazahexadecane-10,14,16-tricarboxylato(3−)(^227Th)Thorium], the “Proliferation assay on cancer cell lines by TTCs Default Pivot #3 IC50 [kBq/mL] LnCap 1000cells 375kBq/nmol (mean)” value in experiment [1] turned out to be 0.10 kBq/mL. Also, the “Proliferation assay on cancer cell lines by TTCs Default Pivot #3 IC50 [kBq/mL] C4-2 1000cells 375kBq/nmol (mean)” value in experiment [2] was determined as 0.72 kBq/mL. The “Proliferation assay on cancer cell lines by TTCs Default Pivot #3 IC50 [kBq/mL] VCap 4000cells 375kBq/nmol (mean)” value in experiment [3] is listed as 0.70 kBq/mL.
For `O=C(O)CC[C@H](NC(=O)N[C@@H](CCCCNC(=O)[C@@H](Cc1ccc2cnccc2c1)NC(=O)[C@H]1CC[C@H](CNC(=O)C[N+]23CCN4CCN5CC[N+]6(CC2)CC(=O)[O][227Th-2]36([O]C(=O)C4)[O]C(=O)C5)CC1)C(=O)O)C(=O)O` [Example 44-B-227Th, (3R,10S,14S)-3-[(isoquinolin-6-yl)methyl]-1,4,12-trioxo-1-{(1r,4S)-4-[(2-{4,7,10-tris[(carboxy-kappaO)methyl]-1,4,7,10-tetraazacyclododecan-1-yl-kappa^2N^1,N^4}acetamido)methyl]cyclohexyl}-2,5,11,13-tetraazahexadecane-10,14,16-tricarboxylato(3−)(^227Th)Thorium], in that order: 0.08 kBq/mL, 0.67 kBq/mL and 0.71 kBq/mL.
Taken in the same sequence, the figures for `O=C(O)CC[C@H](NC(=O)N[C@@H](CCCCNC(=O)[C@@H](Cc1ccc2c(c1)CCCO2)NC(=O)[C@H]1CC[C@H](CNC(=O)C[N+]23CCN4CCN5CC[N+]6(CC2)CC(=O)[O][227Th-2]36([O]C(=O)C4)[O]C(=O)C5)CC1)C(=O)O)C(=O)O` [Example 38-B-227Th, {N^6-[3-(3,4-dihydro-2H-1-benzopyran-6-yl)-N-{(1r,4S)-4-[(2-{4,7,10-tris[(carboxy-kappaO)methyl]-1,4,7,10-tetraazacyclododecan-1-yl-kappa^2N^1,N^4}acetamido)methyl]cyclohexane-1-carbonyl}-D-alanyl]-N^2-{[(1S)-1,3-dicarboxypropyl]carbamoyl}-L-lysinato(3−)}(^227Th)Thorium] were 0.10 kBq/mL, 0.91 kBq/mL and 0.44 kBq/mL.
For “{N^6-[3-(isoquinolin-3-yl)-N-{(1r,4S)-4-[(2-{4,7,10-tris[(carboxy-kappaO)methyl]-1,4,7,10-tetraazacyclododecan-1-yl-kappa^2N^1,N^4}acetamido)methyl]cyclohexane-1-carbonyl}alanyl]-N^2-{[(1S)-1,3-dicarboxypropyl]carbamoyl}-L-lysinato(3−)}(^227Th)Thorium [Example 36-B-227Th]”, in that order: 0.16 kBq/mL, 3.88 kBq/mL and 0.75 kBq/mL.
For the compound `Cc1cc2c(c(=O)n1CC(=O)O)[O][227Th]13[O]c4c(cc(C)n(CC(=O)O)c4=O)C(=O)NCCN(CCCN(CCNC(=O)c4cc(C)n(CC(=O)O)c(=O)c4[O]1)CCNC(=O)c1cc(C)n(CC(=O)NCc4ccc(C(=O)N[C@@H](Cc5ccc6ccccc6c5)C(=O)NCCCC[C@H](NC(=O)N[C@H](CCC(=O)O)C(=O)O)C(=O)O)nc4)c(=O)c1[O]3)CCNC2=O` [Example 25-C-D-227Th], in experiment [1], the “Proliferation assay on cancer cell lines by TTCs Default Pivot #3 IC50 [kBq/mL] LnCap 1000cells 375kBq/nmol (mean)” value is recorded as 0.49 kBq/mL. In experiment [2], the “Proliferation assay on cancer cell lines by TTCs Default Pivot #3 IC50 [kBq/mL] C4-2 1000cells 375kBq/nmol (mean)” value was 2.95 kBq/mL. The “Proliferation assay on cancer cell lines by TTCs Default Pivot #3 IC50 [kBq/mL] VCap 4000cells 375kBq/nmol (mean)” value in experiment [3] was determined as 2.26 kBq/mL.
Regarding `CNc1cc(C[C@@H](NC(=O)[C@H]2CC[C@H](CNC(=O)CN3CCN4CCN5CCN(CC3)CC(=O)[O][227Th]([O]C(=O)C4)[O]C(=O)C5)CC2)C(=O)NCCCC[C@H](NC(=O)N[C@@H](CCC(=O)O)C(=O)O)C(=O)O)cc2ccccc12` [Example 37-B-227Th, (3R,10S,14S)-3-{[4-(methylamino)naphthalen-2-yl]methyl}-1,4,12-trioxo-1-{(1r,4S)-4-[(2-{4,7,10-tris[(carboxy-kappaO)methyl]-1,4,7,10-tetraazacyclododecan-1-yl-kappa^2N^1,N^4}acetamido)methyl]cyclohexyl}-2,5,11,13-tetraazahexadecane-10,14,16-tricarboxylato(3−)(^227Th)Thorium], the “Proliferation assay on cancer cell lines by TTCs Default Pivot #3 IC50 [kBq/mL] LnCap 1000cells 375kBq/nmol (mean)” value in experiment [1] is on record as 0.13 kBq/mL. Moreover, the “Proliferation assay on cancer cell lines by TTCs Default Pivot #3 IC50 [kBq/mL] C4-2 1000cells 375kBq/nmol (mean)” value in experiment [2] was determined as 1.19 kBq/mL. For the same compound, the “Proliferation assay on cancer cell lines by TTCs Default Pivot #3 IC50 [kBq/mL] VCap 4000cells 375kBq/nmol (mean)” value in experiment [3] is listed as 0.87 kBq/mL.
Taken in the same sequence, the figures for `COc1c(C[C@@H](NC(=O)c2ccc(CNC(=O)CN3CCN(CC(=O)[O-])CCN(CC(=O)[O-])CCN(CC(=O)[O-])CC3)cn2)C(=O)NCCCC[C@H](NC(=O)N[C@@H](CCC(=O)O)C(=O)O)C(=O)O)ccc2ccccc12.[227Th+4]` [Example 33a-B-227Th, (3R,10S,14S)-3-[(1-methoxynaphthalen-2-yl)methyl]-1,4,12-trioxo-1-{5-[(2-{4,7,10-tris[(carboxy-kappaO)methyl]-1,4,7,10-tetraazacyclododecan-1-yl-kappa^2N^1,N^4}acetamido)methyl]pyridin-2-yl}-2,5,11,13-tetraazahexadecane-10,14,16-tricarboxylato(3−)(^227Th)Thorium] were 0.20 kBq/mL, 4.63 kBq/mL and 1.22 kBq/mL.
Taken in the same sequence, the figures for `O=C(O)CC[C@H](NC(=O)N[C@@H](CCCCNC(=O)[C@@H](Cc1ccc2cccnc2c1)NC(=O)[C@H]1CC[C@H](CNC(=O)C[N+]23CCN4CCN5CC[N+]6(CC2)CC(=O)[O][227Th-2]36([O]C(=O)C4)[O]C(=O)C5)CC1)C(=O)O)C(=O)O` [Example 45-B-227Th, (3R,10S,14S)-1,4,12-trioxo-3-[(quinolin-7-yl)methyl]-1-{(1r,4S)-4-[(2-{4,7,10-tris[(carboxy-kappaO)methyl]-1,4,7,10-tetraazacyclododecan-1-yl-kappa^2N^1,N^4}acetamido)methyl]cyclohexyl}-2,5,11,13-tetraazahexadecane-10,14,16-tricarboxylato(3−)(^227Th)Thorium] were 0.14 kBq/mL, 1.02 kBq/mL and 0.94 kBq/mL.
